Test results: PMC5458179, “Oxidative DNA double strand breaks and autophagy in the antitumor effect of sterically hindered platinum(II) complexes in NSCLCs” (Oncotarget, 2017)

Columns and labels:
[1] = system: HepG2; experiment: MTT cytotoxicity assay; type: cell-based, human; conditions: 48 h drug exposure
Description: (§1) The results reveal that the steric hindrance plays a significant role in the cytotoxicity of complex 3.
(§2) Human cancer cell lines HepG2, SGC-7901, HCT-116, A549, NCI-H1299 and MCF-7 as well as normal liver cell line L02 were purchased from the Cell Bank of Shanghai Institute of Cell Biology. Among them, MCF-7, HepG2 cells were cultured at 37 °C in 5% CO2 with DMEM supplemented with 10% fetal bovine serum (FBS) (Hyclone, Lifescience, USA) and 1% penicillin/streptomycin (Beyotime, Nantong, China), while HCT-116, SGC-7901, A549, NCI-H1299 and L02 cells were cultured at 37 °C in 5% CO2 with RPMI-1640 supplemented with 10% FBS and 1% penicillin/streptomycin. Cells were passed every 2 days and restarted from frozen stocks upon reaching pass number 20.
(§3) In vitro cytotoxicity of the platinum compounds against human hepatocellular carcinoma (HepG-2), gastric carcinoma (SGC-7901), non-small-cell lung cancer (A549), and colorectal cancer (HCT-116) cell lines were measured by the MTT assays. Briefly, the cells were seeded in 96-well cultured plates at a density of 5000 cells/well. After overnight incubation (16 h), the cells were treated with the platinum complexes. After 48 h of incubation, 10 μL of a freshly diluted 3-(4,5-dimethyl-2-thiazolyl)-2,5-diphenyl-2H-tetrazolium bromide (MTT) solution (5 mg/mL) were added to each well and the plates were incubated at 37 °C in a humidified 5% CO2 atmosphere for 4 h. At the end of the incubation period the medium was removed and the formazan product was dissolved in 150 μL of DMSO. The cell viability was evaluated by measurement of the absorbance at 490 nm, using an Absorbance Reader (BioRad). IC50 values (compound concentration that produces 50% of cell growth inhibition) were calculated from curves constructed by plotting cell survival inhibitory rate (%) versus drug concentration logarithm. All experiments were repeated in three times. The reading values were converted to the percentage of control (% cell survival). Cytotoxic effects were expressed as IC50 values.

[2] = system: HCT-116; experiment: MTT cytotoxicity assay; type: cell-based, human; conditions: 48 h drug exposure
Description: as §1, §2, §3

[3] = system: A549 cells; experiment: Annexin V-FITC/PI apoptosis assay (flow cytometry); type: cell-based, human; conditions: A549, 50 μM for 24 h (figure legend and method: 10 μM)
Description: (§4) Apoptosis is a crucial programmed death form of aging or damaged cells. […] To further explore the impact of complex 3 on long-term clonogenic survival, colony formation assay was performed.
(§5) Annexin V-FITC apoptosis detection kit (Keygen, Jiangsu, China) assay was performed according to the manufacturer's protocol. […] Then the cells were collected, resuspended in binding buffer (pH 7.5, 10 mM HEPES, 2.5 mM CaCl2 and 140 mM NaCl), incubated with Annexin V-FITC and then PI for 10 min in the dark at room temperature, the processed cells were analyzed by flow cytometry (FACSCalibur, Becton Dickinson) and a computer station running Cell-Quest software. (BD Biosciences, Franklin Lakes, NJ).

[4] = system: NCI-H1299 cells; experiment: Annexin V-FITC/PI apoptosis assay (flow cytometry); type: cell-based, human; conditions: NCI-H1299, 50 μM for 24 h (figure legend and method: 10 μM)
Description: as §4, §5

[5] = system: p-mTOR; experiment: Western blot of PI3K/Akt/mTOR pathway; type: cell-based, human; conditions: A549, 10 μM, 24 h, relative to control
Description: (§6) The mammalian target of rapamycin (mTOR) kinase is used to regulate autophagy as controlled though oxidative stress, hypoxia and growth receptors. The phosphatidylinosital-3 kinase (PI3K)/Akt signaling pathway activates mTOR through phosphorylating and inactivating the tuberous sclerosis complex (TSC)1–TSC2 complex. Inhibition of mTOR results in activation of autophagy. […] At the same time, levels of the p-Akt protein decreased to 0.95-, 1.02-, and 0.39-folds, respectively (Figure 7B). […] As a results, the administration of complex 3 decreased levels of proteins in PI3K/Akt/mTOR signaling pathways.
(§7) Lysates were centrifuged at 12,000 g for 0.5 h at 4°C. The concentrations of total proteins were measured using the BCA assay method with Varioskan spectrofluorometer and spectrophotometer (Thermo, Waltham, MA) at 562 nm. Protein (20–100 μg) prepared from the indicated cells was loaded per lane and electrophoresed in 8% or 10% sodium dodecyl sulfate polyacrylamide gel electrophoresis (SDS-PAGE), and then transferred onto polyvinylidene difluoride (PVDF) Immobilon-P membrane (Bio-Rad, USA) using a transblot apparatus (Bio-Rad, USA). The membranes were blocked with 5% (w/v) non-fat milk at 0.5 h at 37°C, followed by overnight incubation at 4°C with primary antibodies diluted in PBST. After washing with PBST, the membranes were incubated for 1 h with an IRDye´800 conjugated secondary antibody diluted 1:20000 in PBST, and the labeled proteins were detected with an Odyssey Scanning System (Li-COR., Lincoln, Nebraska, USA).

[6] = system: p-Akt; experiment: Western blot of PI3K/Akt/mTOR pathway; type: cell-based, human; conditions: A549, 10 μM, 24 h, relative to control
Description: as §6, §7

[7] = system: A549 cells; experiment: Quantification of apoptotic cells (annexin V/PI flow cytometry); type: cell-based, human; conditions: A549, NAC pretreatment
Description: (§8) The role of complex 3-induced autophagy in cell death was further analyzed (Figure 6). When A549 cancer cells were treated with complex 3 of 10 μM, the protein expression of LC3-II was increased (Figure 6A). […] Treatment with complex 3 for 24 h caused a 4.5-folds increase in cells undergoing autophagy (Figure 6C). […] Moreover, Bax and Bcl-2 expressions were measured by western blot analysis of whole cell lysates.
(§9) To investigate the role of ROS in complex 3-induced cell death, the level of intracellular H2O2 was measured. […] Exposure of A549 cells to NAC reduced levels of LC3-II from 2.3- to 1.5-folds (Figure 8B). […] In parallel, the complex 3-induced increase ratio of Bax/Bcl-2 was suppressed by NAC (Figure 8E).
The mode of cell death was analyzed by flow cytometry with annexin V/propidium iodide (PI) double-staining to detect membrane events according to a previous study. After individual treatments, whole cells were collected in 4-(2-hydroxyethyl)-1-piperazineethanesulfonic acid (HEPES) buffer containing 10 mM HEPES (pH 7.4), 140 mM NaCl, and 2.5 mM CaCl2. Cells were subsequently stained with annexin V (2.5 μg/ml) and PI (2 ng/ml) for 20 min, followed by analysis by flow cytometry (Beckman Coulter). Cystograms of the four quadrants in the figure were used to distinguish normal (annexin V^−/PI^−), early apoptotic (annexin V^+/PI^−), late apoptotic(annexin V^+/PI^+), and necrotic cells (annexin V^−/PI^+). The sum of early apoptosis and late apoptosis is presented as total apoptosis.

[8] = system: A549 cells; experiment: Autophagy by acridine orange flow cytometry (AVOs); type: cell-based, human; conditions: A549, NAC pretreatment
Description: as §8, §9
Flow cytometry with acridine orange staining as described in a previous study was used to detect and quantify the AVOs, one of the characteristicsof autophagy. At the end of individual experiments, A549 cells were collected in phenol red-free RPMI 1640 medium. Green (FL-1) and red (FL-3) fluorescences of acridine orange were measured using a flow cytometer and CellQuest software (Becton Dickinson, San Jose, CA). The sum of the upper-left and upper-right quadrants of the cytogram was used to estimate the percentage of cells undergoing autophagy.

[9] = system: MCF-7; experiment: MTT cytotoxicity assay; type: cell-based, human; conditions: exposed for 48 h
Description: as §2
In vitro cytotoxicity of the platinum compounds against human hepatocellular carcinoma (HepG-2), gastric carcinoma (SGC-7901), non-small-cell lung cancer (A549), and colorectal cancer (HCT-116) cell lines were measured by the MTT assays. Briefly, the cells were seeded in 96-well cultured plates at a density of 5000 cells/well. After overnight incubation (16 h), the cells were treated with the platinum complexes. […] The cell viability was evaluated by measurement of the absorbance at 490 nm, using an Absorbance Reader (BioRad). […] The reading values were converted to the percentage of control (% cell survival). Cytotoxic effects were expressed as IC50 values.

[10] = system: pET28a plasmid DNA; experiment: Agarose gel electrophoresis of plasmid DNA; conditions: 0, 20, 80, 320, 640 μM
Description: The tested complexes were incubated with DNA at different concentrations.
Appropriate dilutions of tested complexes were made, and the required volumes of solutions were added to achieve a set of concentrations in the range of 0–100 mm; pET22b DNA (5 mL, 0.20 mg) was added to each tube, and the mixtures of platinum complexes and pET22b plasmid DNA were then incubated at 37°C for 6 or 24 h. Afterward, the agarose gel (made up to 1% w/v) containing ethidium bromide was prepared with TA buffer (50 mm Tris-acetate, pH 7.5). The mixtures with loading buffer (1 mL) underwent electrophores is in agarose gel in TA buffer at 100 V for 60 min. Bands were imaged using a Molecular Imager (Bio-Rad, USA) under UV light.

[11] = system: A549; experiment: MTT cytotoxicity assay; type: cell-based, human; conditions: 48 h drug exposure
Description: as §1
(§10) The effects of complex 3 on the viability of NSCLC cancer cells including A549 and NCI-H1299 were detected respectively via MTT assays at time points of 12, 24, 48 and 72 h (Figure 2A). The results shown that complex 3 could inhibit the viability of the NSCLC cells.
as §2, §3

[12] = system: NCI-H1299; experiment: MTT cytotoxicity assay; type: cell-based, human; conditions: 48 h drug exposure, read-out: IC50 NCI-H1299
Description: as §1, §10, §2, §3

[13] = system: SGC-7901; experiment: MTT cytotoxicity assay; type: cell-based, human; conditions: 48 h drug exposure
Description: as §1, §2, §3

[14] = system: L02 normal liver cell line; experiment: MTT cytotoxicity assay; type: cell-based; conditions: 48 h drug exposure
Description: as §1, §2, §3

SMILES	IC50 [1] [µM]	IC50 [2] [µM]	early and median apoptotic cells [3] [%]	early and median apoptotic cells [4] [%]	late apoptotic cells [4] [%]	amounts of p-mTOR [5] [folds]	levels of the p-Akt protein [6] [folds]	effect of NAC pretreatment on percentage of apoptosis [7]	effect of NAC pretreatment on percentage of autophagy [8]	IC50 [9] [µM]	gel electrophoretic mobility of plasmid DNA [10]	IC50 [11] [µM]	IC50 [12] [µM]	IC50 [13] [µM]	IC50 [14] [µM]
CC(C)CN[C@@H]1CCCC[C@H]1N.O=C([O-])CC(=O)[O-].[Pt+2] [Complex 3a, [(1R,2R)-N^1-(2-methylpropyl)-1,2-cyclohexanediamine-N,N’](malonato-O,O’), reference compound]	> 100	65.8 ± 4.95	12.37	4.58	4.12	0.69	0.39	no decreased percentage	no decreased percentage of autophagy	> 100	no migration was observed	77.5 ± 5.04	94.9 ± 6.74		
CC(C)C[NH+]1[C@@H]2CCCC[C@H]2[NH+](CC(C)C)[Pt-2]1([Cl])[Cl] (stereo partly shown) [Complex 1]	34.1 ± 2.55	70.5 ± 5.56										> 100	> 100	44.6 ± 3.24	148 ± 10.6
CC(C)C[NH+]1[C@@H]2CCCC[C@H]2[NH+](CC(C)C)[Pt-2]12[O]C(=O)C(=O)[O]2 (stereo partly shown) [Complex 2]	> 100	37 ± 2.76										28.4 ± 1.45	> 100	> 100	> 100
CC(C)C[NH+]1[C@@H]2CCCC[C@H]2[NH+](CC(C)C)[Pt-2]12[O]C(=O)C1(CCC1)C(=O)[O]2 (stereo partly shown) [Complex 4]	> 100	> 100										> 100	> 100	> 100	> 100
